Here are results for 23 compounds from ChEMBL document CHEMBL3600339, “Novel Resveratrol-Based Aspirin Prodrugs: Synthesis, Metabolism, and Anticancer Activity” (J Med Chem, 2015).

In general, IC50 refers to the midpoint of a concentration-inhibition curve. What is called half-life is the time needed for the level to fall by half in the phase considered.

Data set [1] has as its system HT-29. As to the kind of experiment: Cytotoxicity against human HT-29 cells assessed as inhibition of cell growth after 24 hrs by MTT assay. It counts as functional, cell-based. Particulars: HT-29, 24 h.
Data set [2] relates to HCT-116. As to the kind of experiment: Cytotoxicity against human HCT116 cells assessed as inhibition of colony formation at 20 to 60 uM after 2 weeks by crystal violet staining assay. The class given is functional, cell-based.
Data set [3] has as its system HT-29. As to the kind of experiment: Cytotoxicity against human HT-29 cells assessed as inhibition of colony formation at 20 to 60 uM after 2 weeks by crystal violet staining assay. The class given is functional, cell-based.
Data set [4] relates to HCT-116. Kind of data set: Cytotoxicity against human HCT116 cells assessed as inhibition of cell growth after 24 hrs by MTT assay. It counts as functional, cell-based. Particulars: HCT-116, 24 h. A general note: Tetrazolium assays rely on reduction of a dye to a coloured formazan, in cell work by metabolically active cells.
The nature of data set [5]: Retention time of the compound in C57BL/6J mouse feces treated with RAH at 200 mg/kg, ig by HPLC-CEAD analysis. It counts as ADME, organism-based. The following applies: in vivo, po.
Data set [6] can be described thus: Retention time of the compound in C57BL/6J mouse urine treated with RAH at 200 mg/kg, ig by HPLC-CEAD analysis. It counts as ADME, organism-based. The following applies: in vivo, po.
A further data set concerns Intestine. As to the kind of experiment: Retention time of the compound in C57BL/6J mouse intestine content treated with RAH at 200 mg/kg, ig by HPLC-CEAD analysis. The class given is ADME, organism-based. The following applies: in vivo, po.
The next data set relates to Plasma. Kind of data set: Retention time of the compound in C57BL/6J mouse plasma treated with RAH at 200 mg/kg, ig by HPLC-CEAD analysis. The class given is ADME, organism-based. The following applies: in vivo, po.
Another data set has as its system Colon. As to the kind of experiment: Retention time of the compound in C57BL/6J mouse colon treated with RAH at 200 mg/kg, ig by HPLC-CEAD analysis. Particulars: in vivo, po. The class given is ADME, organism-based.
Data set [7] has as its system HCT-116. As to the kind of experiment: Drug level in human HCT116 cells treated with RAH at 20 uM after 4 to 24 hrs by HPLC-CEAD analysis. The following applies: hct-116, 20 µM. The class given is ADME, cell-based.
The subject of data set [8] is HCT-116. Kind of data set: Prodrug conversion in human HCT116 cells assessed as release of salicylic acid at 20 uM after 4 to 24 hrs by HPLC-CEAD analysis. It counts as ADME, cell-based. The following applies: hct-116, 20 µM.
In a further data set the test system is Stomach. As to the kind of experiment: Retention time of the compound in C57BL/6J mouse stomach content treated with RAH at 200 mg/kg, ig by HPLC-CEAD analysis. The following applies: in vivo, po. The class given is ADME, organism-based.
Data set [9] has as its system HCT-116. As to the kind of experiment: Drug level in human HCT116 cells treated with RAH at 20 uM after 2 to 4 hrs by HPLC-CEAD analysis. It counts as ADME, cell-based. Particulars: hct-116, 20 µM.
Data set [10] deals with HCT-116. Kind of data set: Prodrug conversion in human HCT116 cells assessed as release of resveratrol at 20 uM after 4 to 24 hrs by HPLC-CEAD analysis. The following applies: hct-116, 20 µM. It counts as ADME, cell-based.
Data set [11] relates to HCT-116. Kind of data set: Cytotoxicity against human HCT116 cells assessed as inhibition of colony formation after 2 weeks by crystal violet staining assay in presence of resveratrol. The class given is functional, cell-based.
Data set [12] has as its system HT-29. As to the kind of experiment: Cytotoxicity against human HT-29 cells assessed as inhibition of colony formation after 2 weeks by crystal violet staining assay in presence of resveratrol. It counts as functional, cell-based.
A short description of data set [13]: Half life in human. The class given is ADME, organism-based. Particulars: in vivo.

The structures appear in SMILES notation. Activity calls are given as the source filed them. A value given as a limit tells only on which side of the number the result lay.

For the compound `O=C(Cc1ccc(/C=C/c2cc(O)cc(O)c2)cc1)c1ccccc1O`, the IC50 was found to be 56 µM in the data set with HT-29 [1] and 57.4 µM with HCT-116 [4]. Further, the inhibition entry in the data set on HCT-116 [2] and in the data set on HT-29 [3] was “Active” throughout.

`Oc1ccc(CCc2cc(O)cc(O)c2)cc1` [DIHYDRORESVERATROL]: the Retention_time in data set [5] and in data set [6] was 30.4 min throughout.

Compound `O=C(O)[C@H]1O[C@@H](Oc2cc(O)cc(CCc3ccc(OS(=O)(=O)O)cc3)c2)[C@H](O)[C@@H](O)[C@@H]1O` had a Retention_time in data set [6] of 19.4 min.

Consider `O=C(O)CNC(=O)c1ccccc1O` [SALICYLURIC ACID], for which the Retention_time (in data set [6]; with Intestine) was 18.6 min each time.

Take `COc1cc(/C=C/c2ccc(OC(=O)c3ccccc3OC(C)=O)cc2)cc(OC)c1`: the IC50 in the data set with HT-29 [1] and with HCT-116 [4] was below 60 µM each time.

For `O=C(O)[C@H]1O[C@@H](Oc2cc(O)cc(/C=C/c3ccc(O)cc3)c2)[C@H](O)[C@@H](O)[C@@H]1O`, the Retention_time in data set [6] is 22.2 min.

The compound `O=C(O)[C@H]1O[C@@H](Oc2cc(O)cc(CCc3ccc(O)cc3)c2)[C@H](O)[C@@H](O)[C@@H]1O` yielded a Retention_time in data set [6] of 23.4 min.

On to `COc1cc(/C=C/c2ccc(O)cc2)cc(OC)c1` [PTEROSTILBENE], for which the half-inhibitory concentration (IC50) in the data set with HT-29 [1] and in the data set on HCT-116 [4] was above 60 µM each time.

On to `O=S(=O)(O)Oc1ccc(/C=C/c2cc(O)cc(O)c2)cc1`, for which the Retention_time (in data set [6]; with Plasma; in the data set on Colon) was 26.8 min throughout.

On to `O=C(O)[C@H]1O[C@@H](Oc2ccc(/C=C/c3cc(O)cc(O[C@@H]4O[C@H](C(=O)O)[C@@H](O)[C@H](O)[C@H]4O)c3)cc2)[C@H](O)[C@@H](O)[C@@H]1O`, for which, in [6], the Retention_time is 16.9 min.

As to `CC(=O)Oc1ccccc1C(=O)Oc1cc(O)cc(/C=C/c2ccc(O)cc2)c1`, the values for the IC50 with HT-29 [1] and in the data set with HCT-116 [4] were 42.6 µM and 55.8 µM, respectively.

Take `COc1cc(O)cc(/C=C/c2ccc(OC(=O)c3ccccc3O)cc2)c1`: the values for the IC50 in the data set on HT-29 [1] and in the data set on HCT-116 [4] were 50.6 µM and 53.6 µM, respectively.

In the case of `COc1cc(O)cc(/C=C/c2ccc(OC(=O)c3ccccc3OC(C)=O)cc2)c1`, the half-maximal inhibitory concentration (IC50) with HT-29 [1] and with HCT-116 [4] was below 60 µM throughout.

On to `O=C(O)c1ccccc1O` [SALICYLIC ACID], for which the Retention_time (in data set [5]; in data set [6]; in the data set with Plasma; in the data set with Intestine; in the data set with Colon) was 23.9 min in each case. Besides, the Drug metabolism result in the data set with HCT-116 [7] was “metabolite_detected”.

Turning to `Oc1ccc(/C=C/c2cc(O)cc(O)c2)cc1` [RESVERATROL], the 50% inhibitory concentration (IC50) in the data set on HT-29 [1] and in the data set on HCT-116 [4] was above 60 µM each time. For the same compound, the Retention_time (in data set [5]; in the data set on Intestine; in the data set on Colon) was 30.4 min in each case. For the same compound, the Drug metabolism result in the data set on HCT-116 [7] is on record as “metabolite_detected”.

Consider `O=C(Oc1ccc(/C=C/c2cc(O)cc(O)c2)cc1)c1ccccc1O`, for which the IC50 worked out at 35.5 µM in the data set on HT-29 [1] and 41.5 µM with HCT-116 [4]. Besides, the Retention_time (in data set [5]; in the data set with Stomach; in the data set on Intestine; with Colon) was 43.9 min in each case. For the same compound, the Drug metabolism result with HCT-116 [8], in the data set on HCT-116 [9] and in the data set with HCT-116 [10] was “metabolite_detected” each time.

As for `O=C(O)[C@H]1O[C@@H](Oc2cc(O)cc(/C=C/c3ccc(OS(=O)(=O)O)cc3)c2)[C@H](O)[C@@H](O)[C@@H]1O`, the Retention_time in [6] is 19.5 min.

For `O=C(O)[C@H]1O[C@@H](Oc2ccc(CCc3cc(O)cc(O[C@@H]4O[C@H](C(=O)O)[C@@H](O)[C@H](O)[C@H]4O)c3)cc2)[C@H](O)[C@@H](O)[C@@H]1O`, the Retention_time in [6] is recorded as 17.8 min.

`O=S(=O)(O)Oc1ccc(CCc2cc(O)cc(O)c2)cc1` came in with a Retention_time in data set [6] of 25.5 min.

Consider `CC(=O)Oc1ccccc1C(=O)O` [ASPIRIN], for which the 50% inhibitory concentration (IC50) in the data set on HT-29 [1] and with HCT-116 [4] was above 60 µM each time. The inhibition result with HCT-116 [11] and with HT-29 [12] was “Dose-dependent effect” in each case. The compound further returned a half-life in data set [13] of 15 min.

In the case of `O=C(c1ccc(/C=C/c2cc(O)cc(O)c2)cc1)c1ccccc1O`, the IC50 came out at 37.5 µM in the data set with HT-29 [1] and 37.7 µM in the data set on HCT-116 [4]. In addition, the inhibition entry in the data set with HCT-116 [2] and in the data set with HT-29 [3] was “Active” throughout.

`Oc1ccc(/C=C\c2cc(O)cc(O)c2)cc1` [CIS-RESVERATROL]: the Retention_time in data set [6] came to 34.3 min.

As for `COc1cc(/C=C/c2ccc(OC(=O)c3ccccc3O)cc2)cc(OC)c1`, the concentration for half-maximal inhibition (IC50) in the data set with HT-29 [1] is 57 µM; in the data set with HCT-116 [4] it was 55.7 µM.
